Calls of active or inactive are those of the source. No cut-off for these calls is given here.
Key:
[1] = test system: 4T1; assay: Antiproliferative activity against mouse 4T1 cells incubated for 72 hrs by MTT assay; format: functional, cell-based; conditions: 4T1, 72 h
[2] = test system: SK-OV-3; assay: Antiproliferative activity against human SK-OV-3 cells incubated for 72 hrs by MTT assay; format: functional, cell-based; conditions: SK-OV-3, 72 h
[3] = molecular target: T1, Histone deacetylase 8 (Homo sapiens, UniProt Q9BY41); assay: Inhibition of HDAC8 (unknown origin)
T1 sequence (Q9BY41 whole entry): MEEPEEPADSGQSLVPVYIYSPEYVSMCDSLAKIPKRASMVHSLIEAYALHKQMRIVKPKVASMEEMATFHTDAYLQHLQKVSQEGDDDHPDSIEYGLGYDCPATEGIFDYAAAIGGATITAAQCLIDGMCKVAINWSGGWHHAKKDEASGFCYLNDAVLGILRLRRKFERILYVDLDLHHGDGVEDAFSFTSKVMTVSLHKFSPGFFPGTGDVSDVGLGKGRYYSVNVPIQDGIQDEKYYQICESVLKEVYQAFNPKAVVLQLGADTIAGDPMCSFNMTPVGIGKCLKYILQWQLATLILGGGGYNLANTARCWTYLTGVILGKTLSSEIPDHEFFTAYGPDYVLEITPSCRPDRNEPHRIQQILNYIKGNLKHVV

[4] = test system: K562; assay: Antiproliferative activity against human K562 cells incubated for 72 hrs by CCK8 assay; format: functional, cell-based; conditions: K562, 72 h
[5] = test system: SK-OV-3; assay: cells; format: functional; conditions: Homo sapiens, time 72 hrs
[6] = test system: K562; assay: cells; format: functional; conditions: Homo sapiens, time 72 hrs
[7] = molecular target: Histone deacetylase 1 (Homo sapiens, UniProt Q13547); assay: Inhibition of HDAC1 (unknown origin)
[8] = test system: B16-F10; assay: Antiproliferative activity against mouse B16-F10 cells incubated for 72 hrs by MTT assay; format: functional, cell-based; conditions: B16-F10, 72 h
[9] = test system: 4T1; assay: cells; format: functional; conditions: Mus musculus, time 72 hrs
[10] = molecular target: Histone deacetylase 3 (Homo sapiens, UniProt O15379); assay: Inhibition of HDAC3 (unknown origin)
[11] = Antiproliferative activity against human HK-2 cells incubated for 72 hrs by MTT assay
[12] = test system: HCT-116; assay: cells; format: functional; conditions: Homo sapiens, time 72 hrs
[13] = test system: HCT-116; assay: Antiproliferative activity against human HCT-116 cells incubated for 72 hrs by MTT assay; format: functional, cell-based; conditions: HCT-116, 72 h
[14] = molecular target: T2, Protein deacetylase HDAC6 (Homo sapiens, UniProt Q9UBN7); assay: Inhibition of HDAC6 (unknown origin)
T2 sequence (Q9UBN7 whole entry): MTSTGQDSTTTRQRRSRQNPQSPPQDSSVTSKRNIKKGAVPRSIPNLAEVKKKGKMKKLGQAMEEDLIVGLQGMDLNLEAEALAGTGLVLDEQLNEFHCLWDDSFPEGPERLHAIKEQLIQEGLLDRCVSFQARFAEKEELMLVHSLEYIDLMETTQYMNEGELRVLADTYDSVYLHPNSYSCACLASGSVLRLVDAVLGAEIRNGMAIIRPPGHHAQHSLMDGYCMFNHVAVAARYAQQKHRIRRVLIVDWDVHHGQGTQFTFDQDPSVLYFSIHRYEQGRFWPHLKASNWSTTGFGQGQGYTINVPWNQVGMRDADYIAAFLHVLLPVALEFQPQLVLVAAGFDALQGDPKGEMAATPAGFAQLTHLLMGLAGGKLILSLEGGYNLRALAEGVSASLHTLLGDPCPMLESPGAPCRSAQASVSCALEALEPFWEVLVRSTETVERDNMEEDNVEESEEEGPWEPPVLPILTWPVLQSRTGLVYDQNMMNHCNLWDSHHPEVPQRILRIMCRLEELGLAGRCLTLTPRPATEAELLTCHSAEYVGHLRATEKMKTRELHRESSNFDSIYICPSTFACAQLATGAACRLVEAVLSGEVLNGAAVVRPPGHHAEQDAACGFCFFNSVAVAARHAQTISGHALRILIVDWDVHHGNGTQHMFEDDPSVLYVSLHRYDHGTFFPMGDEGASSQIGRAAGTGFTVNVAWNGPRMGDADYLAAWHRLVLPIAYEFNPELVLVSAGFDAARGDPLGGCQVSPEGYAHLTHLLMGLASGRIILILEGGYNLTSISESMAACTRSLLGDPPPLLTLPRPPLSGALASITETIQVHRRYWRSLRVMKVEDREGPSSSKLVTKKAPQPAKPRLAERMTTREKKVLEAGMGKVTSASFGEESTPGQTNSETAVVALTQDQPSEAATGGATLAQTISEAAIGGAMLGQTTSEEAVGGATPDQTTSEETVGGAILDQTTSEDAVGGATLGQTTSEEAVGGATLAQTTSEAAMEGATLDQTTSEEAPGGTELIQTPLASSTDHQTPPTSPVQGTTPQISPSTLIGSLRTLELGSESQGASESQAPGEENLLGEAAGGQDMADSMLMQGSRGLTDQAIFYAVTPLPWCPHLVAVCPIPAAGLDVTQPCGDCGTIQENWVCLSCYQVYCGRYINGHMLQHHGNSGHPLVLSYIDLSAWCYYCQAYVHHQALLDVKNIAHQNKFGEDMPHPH

[15] = test system: B16-F10; assay: cells; format: functional; conditions: Mus musculus, time 72 hrs
[16] = test system: 4T1; assay: Induction of DNA damage in mouse 4T1 cells implanted in mouse assessed as decrease in PARP level at 20 mg/kg/day by immunofluorescence based analysis; format: functional, organism-based
[17] = test system: 4T1; assay: Induction of DNA damage in mouse 4T1 cells implanted in mouse assessed as increase in gamma-H2AX level at 20 mg/kg/day by immunofluorescence based analysis; format: functional, organism-based
[18] = test system: 4T1; assay: Induction of DNA damage in mouse 4T1 cells assessed as increase in gamma-H2AX level at 1 uM by immunofluorescence based analysis; format: functional, cell-based
[19] = test system: 4T1; assay: Induction of DNA damage in mouse 4T1 cells assessed as increase in gamma-H2AX level at 2 uM incubated for 24 hrs by Western blot analysis; format: functional, cell-based
[20] = test system: 4T1; assay: Induction of DNA damage in mouse 4T1 cells implanted in mouse assessed as decrease in PARP level at 20 mg/kg/day by Western blot analysis; format: functional, organism-based
[21] = test system: 4T1; assay: Induction of DNA damage in mouse 4T1 cells assessed as decrease in PARP1 level at 2 uM incubated for 24 hrs by Western blot analysis; format: functional, cell-based
[22] = test system: 4T1; assay: Induction of DNA damage in mouse 4T1 cells implanted in mouse assessed as increase in gamma-H2AX level at 20 mg/kg/day by Western blot analysis; format: functional, organism-based
[23] = test system: 4T1; assay: Induction of DNA damage in mouse 4T1 cells assessed as decrease in PARP1 level at 1 uM by immunofluorescence based analysis; format: functional, cell-based
[24] = test system: 4T1; assay: Antitumor activity against mouse 4T1 cells implanted in mouse at 20 mg/kg/day relative to control; format: functional; conditions: read-out: TGI

Histone deacetylase 1, sequence (Q13547 whole entry): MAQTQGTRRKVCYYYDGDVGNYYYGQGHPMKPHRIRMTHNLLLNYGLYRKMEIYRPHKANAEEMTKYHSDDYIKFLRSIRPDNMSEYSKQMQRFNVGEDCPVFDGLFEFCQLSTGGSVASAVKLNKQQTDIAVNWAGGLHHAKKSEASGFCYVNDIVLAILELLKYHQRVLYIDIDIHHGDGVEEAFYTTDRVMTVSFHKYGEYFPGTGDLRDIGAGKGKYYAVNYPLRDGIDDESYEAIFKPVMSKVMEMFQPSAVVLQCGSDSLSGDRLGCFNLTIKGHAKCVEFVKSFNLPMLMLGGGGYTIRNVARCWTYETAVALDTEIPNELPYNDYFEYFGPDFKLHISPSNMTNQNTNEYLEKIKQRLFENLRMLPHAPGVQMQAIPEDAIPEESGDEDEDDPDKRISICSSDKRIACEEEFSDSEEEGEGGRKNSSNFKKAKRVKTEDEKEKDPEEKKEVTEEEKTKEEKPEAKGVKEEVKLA
Histone deacetylase 3, sequence (O15379 whole entry): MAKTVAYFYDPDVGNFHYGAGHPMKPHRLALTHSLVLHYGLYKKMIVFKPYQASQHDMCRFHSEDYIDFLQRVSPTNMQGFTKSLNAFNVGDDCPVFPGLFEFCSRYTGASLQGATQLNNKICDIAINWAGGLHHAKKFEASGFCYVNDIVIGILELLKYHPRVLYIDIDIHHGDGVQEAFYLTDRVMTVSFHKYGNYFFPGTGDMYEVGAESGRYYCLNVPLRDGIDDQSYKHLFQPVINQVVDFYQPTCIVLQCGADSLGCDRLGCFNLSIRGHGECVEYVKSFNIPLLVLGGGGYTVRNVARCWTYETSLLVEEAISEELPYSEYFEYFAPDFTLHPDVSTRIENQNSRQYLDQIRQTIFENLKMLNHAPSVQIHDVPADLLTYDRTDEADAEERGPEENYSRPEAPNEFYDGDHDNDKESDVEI

IC50 [1] [µM]	IC50 [2] [µM]	IC50 [3] [µM]	IC50 [4] [µM]	IC50 [7] [µM]	IC50 [8] [µM]	IC50 [10] [µM]	IC50 [13] [µM]	IC50 [14] [µM]	Structure (SMILES)	inhibition at 10 µM [5] [%]	inhibition at 10 µM [6] [%]	inhibition at 10 µM [9] [%]	IC50 at 72 h [11] [µM]	inhibition at 10 µM [12] [%]	inhibition at 10 µM [15] [%]	further results
10.5	4.43	> 10	7.68	> 5	11.1	1.6	3.38	> 10	CCCNNC(=O)CCCCCNC(=O)c1cnc(-c2ccc(Oc3ccccc3)cc2)s1	68.6	73.1	33.8	10.8	82.6	< 50	
12.9	7.9	> 10	5.65	0.89	4.74	0.73	4.77	> 10	CCCNNC(=O)CCCCCCNC(=O)c1cnc(-c2ccc(F)cc2F)s1	82.1	70.5	< 20	12.2	79.7	56	
8.02	5.22	> 10	6.05	1.36	13.1	0.97	8.42	> 10	CCCNNC(=O)c1ccc(NC(=O)c2cnc(-c3cc4ccc5cccc6ccc(c3)c4c56)s2)cc1	77.5	< 50	< 20	11.2	69.3	61.7	
									O=C(c1cc(Cc2n[nH]c(=O)c3ccccc23)ccc1F)N1CCN(C(=O)C2CC2)CC1 [OLAPARIB]							Activity [16]: Active; Activity [17]: Active; Activity [18]: Active; Activity [19]: Active; Activity [20]: Active; Activity [21]: Active; Activity [22]: Active; Activity [23]: Active; inhibition in vivo at 20 mg/kg/day [24]: 49%
